Test results from patent US8173840B2, “Compounds with high therapeutic index” (Signature R&D Holdings, LLC, priority 2003, dated 2012).

Key:
[1] = system: albino rats (Wistar strain); assay: 28-day repeated dose oral toxicity test of Acetylsalicylic Acid-L-Threonine Ester; settings: 100 mg/kg as aspirin, oral gavage daily 28 days;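 note: one dose level only, compared with a vehicle control group, with doses stated as Aspirin molar equivalents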
Procedure: (§1) The study was conducted at one dose level only along with a vehicle control group as per the recommendation of the Sponsor. The test doses are expressed as Aspirin molar equivalents.

women = settings: daily dose of 60 mg, more than 9000 women; cited from earlier work
Male albino rats = assay: Blood clotting time in albino rats, 2 hours after dosing; assay type: in vivo, rat; settings: 20 mg/kg as aspirin, 2 hours (±10 minutes) after dosing
Procedure: Aspirin served as positive control. Male albino rats were exposed to aspirin and to 3 new formulations of amino acid derivatives of aspirin derivatives at one dose level of 20 mg/kg body weight. […]. The doses were expressed as aspirin molar equivalents.
The efficacy in terms of time required for the blood clotting time at the dose level of 20 mg/kg body weight for different formulations of amino acid derivatives of aspirin and aspirin (positive control) are presented below:
The data on the mean clotting time (MCT) of the animals, estimated 2 hours (±10 minutes) after dosing, at the dose level of 20 mg/kg body weight for the formulations of aspirin derivatives, vehicle control and positive control are presented below

[2] = Plasma aspirin and salicylic acid in human volunteers; assay type: in vivo
Source text: This is shown in FIG. 12 which depicts the concentration of salicyclic Acid in human plasma with respect to four volunteers who took Acetylsalicyclic Acid-L-Threonine Ester and two volunteers who took Aspirin.

[3] = system: albino rats (Wistar strain); settings: rat, in vivo
Procedure: as §1

human volunteers = assay: Blood clotting time studies in human volunteers; assay type: in vivo; settings: human volunteers
Procedure: Several blood clotting time studies were performed on a limited number of human volunteers with Acetylsalicylic Acid-L-Threonine Ester. […] This plot was derived from the data in Table 29. The two Acetylsalicylic Acid-L-Threonine Ester blocks shown above correspond to two separate volunteers who took the test drug over a period of 5 days. The third volunteer took Bayer Aspirin for 5 days. As per FIG. 2, increase in clotting time occurred on the very first day of drug intake, and remained higher than Bayer ASA during the subsequent administrations.

rats = assay: Clotting time in rats, different date, time intervals and doses (Table 24); assay type: in vivo, rat
Source text: The following additional data were obtained, when the same drugs were compared in rats on a different date with different time intervals and doses: […]

albino rats = assay: Blood clotting time in albino rats, one hour after dosing; assay type: in vivo, rat; settings: one hour after dosing
Procedure: The data on the mean clotting time (MCT) of the animals of low, intermediate and high dose groups of different formulations, vehicle control and positive control groups estimated one hour after dosing were presented below (Table 19):
Aspirin served as positive control. The study was conducted at three dose levels with the new formulations and positive control along with a vehicle control group.
The doses for the main study were selected based on the dose range finding experiments with acetylsalicylic acid. All the doses were expressed as aspirin molar equivalents. The doses used are presented below.

[4] = system: fasted male albino rats (Wistar strain); assay: Gastric mucosa irritation of acetylsalicylic acid esters; assay type: in vivo, rat; settings: single dose by gavage, 3 hours, 5 animals
Procedure: Aspirin served as a reference control. […] All the doses were expressed as aspirin molar equivalents. The doses used as well as the molar equivalents are presented below. The rats were fasted for a period of 18 to 22 hours before dosing. The test item was administered as a single dose by gavage. Three hours after drug administration, the animals were killed humanely by CO2 gas inhalation. The stomach was dissected out and observed for • the quantity of mucous exudate, • degree of hyperemia and thickening of stomach wall, • hemorrhagic spots (focal or diffuse), nature of hemorrhages (petechial or ecchymotic) along with the size and • perforations

## CC(=O)Oc1ccccc1C(=O)O [acetylsalicylic acid, reference compound]
[1]
  survival: survived through the dosing period of 28 days
women
  reduced the risk of pre-eclampsia by: 13%
Male albino rats
  Mean Clotting Time (± S.D.): 5.4 ± 1.17 min
[2]
  Salicylic Acid in human plasma (profile, words): Rapid influx and efflux of Salicylic Acid
[2]; 325 mg dose, oral
  Aspirin in blood / plasma: showed Plasma levels of Aspirin
[3]
  Alkaline Phosphatase, Significance [P < 0.05]: Increase (Female)
  All Blood Parameters, Significance [P < 0.05]: None
  Blood Urea, Significance [P < 0.05]: Decrease (Female)
  Food intake: normal and comparable to the animals of vehicle control group
  Kidney (Abs) organ weight, Significance[P < 0.05]: Decrease (Male)
  Kidney (Rel) organ weight, Significance[P < 0.05]: Increase (Male)
  SGPT and Cholesterol, Significance [P < 0.05]: Increase (Male)
  Sodium, Significance [P < 0.05]: Increase (Female)
  Spleen (Abs) organ weight, Significance[P < 0.05]: Decrease (Female)
  Spleen (Rel) organ weight, Significance[P < 0.05]: Increase (Female)
  histological sections of organs: mild fatty changes in the cardiac muscle fibers of heart and mild catarrhal changes of gastric mucosa
Human volunteers; 81 mg
  AVERAGE CLOTTING TIME: 4.5 min
Human volunteers; 325 mg
  AVERAGE CLOTTING TIME: 5.7 min
rats; 10 mg/kg 1 hr
  Clotting Time: 9.8 min
rats; 10 mg/kg 24 hr
  Clotting Time: 4.4 min
rats; 20 mg/kg 2 hr
  Clotting Time: 5.4 min
Albino rats; 1.0 mg/kg as aspirin
  Mean Clotting Time (±S.D.), Low Dose: 6.2 ± 1.40 min
Albino rats; 4.0 mg/kg as aspirin
  Mean Clotting Time (±S.D.), Intermediate Dose: 8.1 ± 1.97 min
Albino rats; 10.0 mg/kg as aspirin
  Mean Clotting Time (±S.D.), High Dose: 9.8 ± 1.32 min
Albino rats
  statistical analysis of mean clotting time vs vehicle control: significant improvement at 5% significance level in the efficacy for the intermediate and high dose
[4]; 100.0 mg/kg as acetylsalicylic acid, listed as aspirin
  Observation, gastric mucosal irritation: failed to cause any evidence of gastric mucosal irritation
[4]; 200.0 mg/kg as acetylsalicylic acid, listed as aspirin (acetylsalicylic acid)
  Observation, gastric mucosal irritation: caused irritation of the gastric mucosal in all the fasted male albino rats
